Measured values from patent US20070129334A1, “Orally Active Purine-Based Inhibitors of Heat Shock Protein 90” (CONFORMA THERAPEUTICS CORPORATION, priority 2001, published 2007).
Read-outs that look alike come from different tables or passages of the source.

Columns and labels:
[1] = tested on: N87 xenograft model of human stomach cancer; settings: for tumor growth inhibition: N87
[2] = tested on: Hsp90 clients in N87 stomach cancer xenograft tumors; assay: Pharmacodynamic effect in N87 xenograft model; type: in vivo, mice
Protocol: The pharmacodynamic effect of amine 126 was examined in a N87 xenograft model (FIG. 1b), N87 being a stomach cancer cell line expressing high HER-2 levels. Mice were administered 126.H3PO4 orally at two different regimens (2×100 or 2×200 mg/kg/day) for three days, and were sacrificed 24 h after the last dosing.

[3] = Pharmacokinetics in Balb/C mice (IV 10 mg/kg, PO 100 mg/kg)
[4] = tested on: HER-2 receptor (Hsp90 client) in MCF-7 cells; assay: HER-2 degradation assay (MCF-7 cells, 16 h, phycoerythrin-labeled antibody and flow cytometry); type: cell-based, human
[5] = tested on: MCF-7 breast cancer cells; assay: MTS cell growth inhibition assay; type: cell-based, human; settings: MCF-7 cells, 5 days; SEM 9-21% of the mean
in vivo = settings: mouse, po, 100 mg/kg
[6] = mouse, in vivo, po, 100 mg/kg
[7] = Solubility in simulated gastric fluid, simulated intestinal fluid and serum; type: physicochemical; settings: for Serum (PH 7.4): solubility in serum; for Gastric (PH 2.0): solubility in simulated gastric fluid; for Intestinal (PH 6.5): solubility in simulated intestinal fluid
[8] = Mouse pharmacokinetics after oral administration at 100 mg/kg
MCF-7 xenograft tumors = settings: cited from earlier work
[9] = oral 2×100 mg/kg/day for three days

COc1ccc(I)c(Sc2nc3c(N)ncnc3n2CCCNC(C)C)c1.O=P(O)(O)O [Compound 126, 8-(2-Iodo-5-methoxy-phenylsulfanyl)-9-(3-isopropylamino-propyl)-9H-purin-6-ylamine H3PO4 salt]
tumor growth inhibition ([1]; oral 200 mg/kg/day, once daily, 5 days/week): Tumor growth inhibition was observed
mortality and weight loss ([1]; oral 200 mg/kg/day, once daily, 5 days/week, mice): neither mortality nor weight loss was observed
degradation of HER-2, pHER-2, pRaf in tumor [2, 9]: little or no degradation
degrading Akt, pAkt, Raf-1, pMEK, cdk6, pRb in tumor [2, 9]: still effective
levels of HER-2 and pHER-2 in tumor ([2]; oral 2×200 mg/kg/day for three days): decreased only partially
degradation of Akt, pAkt, Raf-1, pRaf, cdk6, pRb in tumor ([2]; oral 2×200 mg/kg/day for three days, 24 h after last dosing): to levels comparable to those obtained with 17-AAG
IV Parameters T1/2 ([3]; IV 10 mg/kg, H3PO4 salts): 4.2 h
IV Parameters VSS ([3]; IV 10 mg/kg, H3PO4 salts): 22 L/kg
IV Parameters Cl ([3]; IV 10 mg/kg, H3PO4 salts in phosphatidylcholine/water dispersion): 62 mL/min/kg
PO Parameters T1/2 ([3]; PO 100 mg/kg, H3PO4 salts): 1.5 h
PO Parameters Tmax ([3]; PO 100 mg/kg, H3PO4 salts): 0.5 h
PO Parameters Cmax ([3]; PO 100 mg/kg, H3PO4 salts, plasma): 4700 ng/mL
PO Parameters AUC ([3]; PO 100 mg/kg, over 4 h, H3PO4 salts): 450 µg·min/mL
IC50 ([4]; MCF-7 cells, 16 h, SEM 6-11% of the mean, read-out: HER-2 IC50): 180 nM
IC50 [5]: 600 nM

CC(=O)OCCCn1c(Sc2nc3cccc(Cl)c3s2)nc2c(N)ncnc21 [Compound 242]
AUC (in vivo): 1040 ng·h/mL
plasma concentrations (in words) [6]: significantly lower than 264
IC50 ([4]; Homo sapiens, MCF7, read-out: HER-2): 90 nM
Serum (PH 7.4) [7]: 9 µg/mL
Gastric (PH 2.0) [7]: 220 µg/mL
Intestinal (PH 6.5) [7]: 16 µg/mL

Nc1ncnc2c1nc(Sc1nc3cccc(Cl)c3s1)n2CCNC1CC1 [Compound 264]
tumor growth inhibition ([1]; oral 200 mg/kg 5 days/week, day 39, vs control group): 56%
oral bioavailability (in words) [8]: orally bioavailable
C-max ([8]; PO 100 mg/kg): 4513 ng/mL
Mouse PK PO AUC at 100 mg/kg PO ([8]; PO 100 mg/kg): 430511 ng·min/mL
Mouse PK PO Cmax at 100 mg/kg ([8]; PO 100 mg/kg): 4479 ng/mL
time of C-max after dosing ([8]; PO 100 mg/kg): 30 min
half life ([8]; PO 100 mg/kg, estimated): ~1.5 h
IC50 ([4]; 9-N-alkyl position SAR, head prints no unit, nM, read-out: HER-2): 110 nM
Serum (PH 7.4) [7]: 59 µg/mL
Gastric (PH 2.0) [7]: 245 µg/mL
Intestinal (PH 6.5) [7]: 21 µg/mL

CCCCn1c(Cc2cc(OC)ccc2Cl)nc2c(N)ncnc21 [Compound 311, 9-Butyl-8-(2-chloro-5-methoxy-benzyl)-9H-purin-6-ylamine]
IC50 ([4]; Homo sapiens, MCF7, MCF-7 cells, 16 h, average of at least three observations, read-out: HER-2 IC50): 20000 nM
melting point: 138 to 139 °C

C#CCCCn1c(Cc2cc(OC)c(OC)c(OC)c2Cl)nc2c(N)nc(F)nc21 [PU24FCl]
aqueous solubility (in words) (Water solubility): too insoluble to be effectively formulated and delivered orally
tumor growth (MCF-7 xenograft tumors; intraperitoneally 200 mg/kg): significantly repressed tumor growth
pharmacodynamic response in tumors (MCF-7 xenograft tumors; intraperitoneally 100-300 mg/kg, DMSO/EtOH/phosphate-buffered saline 1:1:1): down-regulation of HER-2 and Raf-1
IC50 [5]: 1200 nM
